Test results published in patent US20250381307A1, “RETRO-AAV AND USE IN TREATING NEURODEGENERATIVE DISEASES” (priority 2023, published 2025).

Assays:
rM3Ds [1] = target: T1, rM3Ds (Rattus norvegicus, UniProt P08483, A177S/A238G/A489L/DEL261-437/DEL441-478/E258S/I253V/I483M/INS256[…]/K178L/K182A/K255R/K484R/K486H/L173F/L482A/M480V/R171S/R176Q/R179M/S481M/T174R/T181R/T257A/Y148C); test: Rotation behavior and nigral c-Fos in mice after unilateral nigral AAV8R12-G88P7-rM3Ds-2A-EYFP and CNO; assay type: in vivo; settings: for contraversive rotations (FIG. 7A): AAV8R12-G88P7-rM3Ds-2A-EYFP, n=8; for rotation behavior (FIG. 7C): control vector AAV8R12-G88P7-EYFP, n=5
T1 construct: rM3Ds; 2A-EYFP (C); host or cells: AAV8R12-transduced striatal D1-MSNs of mice and cynomolgus macaques (in vivo and acute slices)
Method: Mice were anesthetized with sodium pentobarbital (Nembutal; 80 mg/kg, i.p.), and then placed into a stereotaxic device (KOPF). Eye cream was applied on both corneas to avoid dehydration. The skull above the targeted areas was thinned with a dental drill and carefully removed. Injections were conducted with a 10 μL syringe connected to a 33-Gauge needle (Neuros; Hamilton), using a microsyringe pump (Legato 130, KD Scientific). A total volume of 200 nL virus was injected into the SNr at a speed of 20 nL/min. The coordinates for the SNr were 3.4 mm posterior, 1.3 mm lateral, 4.8 mm ventral to the bregma.
Mice that were used in the behavioral experiments were then implanted with guide cannulas (KOPF) unilaterally aiming at the dorsomedial striatum (0.5 mm anterior, 1.5 mm lateral, 3.5 mm ventral to the bregma). The cannulas were fixed to the skull with dental cement. Stainless steel obturators were inserted into the guide cannulas and were replaced every other day to maintain the patency until infusions were made. Mice were allowed to recover from the surgery for at least 3 weeks before further studies.
Mice were individually handled for 10-20 seconds per day for at least 5 days to habituate them to the experimenter. The open field test was conducted in a test apparatus (50 cm×50 cm×50 cm) with an HD digital camera (Sony) positioned above the arena. On day one, mice were habituated to the apparatus for 10 minutes. On day 2, mice were administrated saline (0.1 mL i.p. or 200 nL intracranially [i.e.] through the guide cannulas). On day 3, mice were administrated with Clozapine-N-oxide (CNO, Hello Bio, HB1807; 0.3 mg/kg i.p. or 200 nL at 100 μM i.e.). All behavioral tests were conducted 30 minutes after injection. During the test, mice were allowed to freely explore the apparatus for 10 minutes. The behavioral data were analyzed with ANY-maze software (Stoelting Co.).

rM3Ds [2] = target: T2, rM3Ds (Rattus norvegicus, UniProt P08483, A177S/A238G/A489L/DEL261-437/DEL441-478/E258S/I253V/I483M/INS256[…]/K178L/K182A/K255R/K484R/K486H/L173F/L482A/M480V/R171S/R176Q/R179M/S481M/T174R/T181R/T257A/Y148C); test: In vivo electrophysiological recording in caudate/putamen, rM3Ds macaques, intramuscular CNO; design: rM3Ds; 2A-EYFP (C); host or cells: AAV8R12-transduced striatal D1-MSNs of mice and cynomolgus macaques (in vivo and acute slices)
T2 sequence (P08483 with tags, fused parts or gaps Y148C/R171S/L173F/T174R/R176Q/A177S/K178L/R179M/T181R/K182A/A238G/I253V/K255R/INS256[…]/T257A/E258S/DEL261-437/DEL441-478/M480V/S481M/L482A/I483M/K484R/K486H/A489L): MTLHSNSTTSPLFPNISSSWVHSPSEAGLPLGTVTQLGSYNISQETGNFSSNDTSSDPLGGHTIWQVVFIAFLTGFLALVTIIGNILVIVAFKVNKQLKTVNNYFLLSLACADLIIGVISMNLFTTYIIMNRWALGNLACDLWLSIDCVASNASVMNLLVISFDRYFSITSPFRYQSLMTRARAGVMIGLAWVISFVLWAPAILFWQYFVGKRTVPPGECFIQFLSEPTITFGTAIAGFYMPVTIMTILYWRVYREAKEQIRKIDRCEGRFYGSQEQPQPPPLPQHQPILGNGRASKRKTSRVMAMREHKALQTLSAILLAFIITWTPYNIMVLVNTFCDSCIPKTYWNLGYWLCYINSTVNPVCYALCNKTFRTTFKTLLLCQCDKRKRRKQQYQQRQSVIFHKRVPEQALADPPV
Method: Electrophysiological recording was performed through a recording chamber while the monkey was anesthetized. Neural responses were recorded by a 16-channel linear probe (Plexon Inc, Uprobe) driven by a mechanical microdrive (Alpha Omega, FlexMT). Signals were passed through a head stage (Plexon Inc, HST/16V-G20 LN) and then split and filtered between 300 Hz and 5 kHz to identify spiking activity with an amplifier system (Plexon Inc, OmniPlex). Detected spikes were then sorted by commercially available software (Plexon Inc, Offline Sorter) for further analysis. To quantify the effect of CNO/DCZ injection, neural activity was recorded for 60 minutes following CNO/DCZ injection. The response time-course for each channel was obtained by counting the spikes within every 10-minute window and then normalizing to the maximal.
To determine the effect of CNO/DCZ injection on the direction of signal change, we performed Pearson correlation between neural responses and time using the ‘corr’ function in Matlab, which generates the correlation coefficient ‘r’ and significant level ‘p’. A neuron was considered to have “Increased” activity when r>0 and p<0.05; and considered to have “Decreased” activity when r<0 and p<0.05. Otherwise, neurons were considered to be “Unchanged” in their neural activities. The responses of all increased neurons were then averaged after being normalized by the maximal response (Crowe et al., 2014; Dai and Wang, 2018; Hirokawa et al., 2019) following CNO/DCZ injection, and then plotted as a function of time to generate the normalized population response.
To enable in-vivo verification of the strategy via an opto-tagging approach, AAV virus encoding opsin ChR2 (AAV9-EF1α-DIO-ChR2-EYFP) was injected into the striatum with simultaneous nigral infusion of a retrograde AAV encoding Cre and rM3Ds (AAV8R12-G88P7-HA-rM3Ds-2A-Cre). A total volume of 27 μl (3 μl×9 sites) and 30 μl (3 μl×10 sites) were injected in the SNr and the striatum, respectively. A recording chamber was implanted above the striatum to allow optical stimulation and electrophysiological recording.
Optogenetic verification was conducted six weeks after virus injections. A 16-channel linear probe with an embedded optic fiber (Plexon Inc., Uprobe) was used to deliver light stimulation and record neural responses. A mechanical Microdrive (FlexMT, Alpha Omega, Nazareth, Israel) was used to mount and drive the probe. A blue laser (473 nm, Changchun New Industries Tech, MBL-III-473) was used to generate light stimulation, which was controlled by a DAQ board (National Instruments, PCIe-6321) through the MonkeyLogic toolbox (NIMH version).
Light pulses of 40 Hz that last for 500 ms were used to probe neurons' responses to optical stimulation. […] Responses from these optically identified cells were grouped to generate the normalized population response as a function of time.

## C[N+]1([O-])CCN(C2=Nc3cc(Cl)ccc3Nc3ccccc32)CC1 [CNO, clozapine N-oxide]
rM3Ds [1]; CNO i.p., 12 months after nigral AAV8R12-G88P7-rM3Ds-2A-EYFP
  rotations 12 months after viral infection: consistently elevated contraversive rotations
rM3Ds [1]; CNO i.p., saline 45.95±4.972
  contraversive rotations (FIG. 7A): 80.05±5.168
rM3Ds [1]; CNO i.p., saline 48.68±7.203
  rotation behavior (FIG. 7C): 46.88±7.497
rM3Ds [1]; CNO intracranial, saline 58.31±4.742
  contraversive rotations (FIG. 7A): 80.77±4.187
rM3Ds [1]; CNO intracranial, saline 41.11±12.73
  rotation behavior (FIG. 7C): 34.55±7.536
rM3Ds [1]; CNO intraperitoneal, rM3Ds
  c-Fos+ cells in the SNr: didn't increase the number of c-Fos+ cells in the SNr
rM3Ds [2]; 38 total cells, saline 20%
  caudate/putamen cells activated (FIG. 12N): 50%
rM3Ds [2]; 38 total cells, saline 26.7%
  caudate/putamen cells unchanged (FIG. 12N): 36.8%
rM3Ds [2]; 38 total cells, saline 53.3%
  caudate/putamen cells inactivated (FIG. 12N): 13.2%
rM3Ds [2]; AAV8R12-G88P7-HA-rM3Ds-2A-Cre plus AAV9-EF1α-DIO-ChR2-EYFP, anesthetized macaques
  neuronal activity of opto-tagged retrogradely labeled D1-MSNs: effectively induced an increase of neuronal activity
rM3Ds [2]; monkey CM048, 38 cells
  caudate cells activated (FIG. 12F): 65.8%
  caudate cells inactivated (FIG. 12F): 7.9%
  caudate cells unchanged (FIG. 12F): 26.3%
